Measured values from patent US7022699B2, “Cyclohexenyl phenyl diazepines vasopressin and oxytocin receptor modulators” (Wyeth, priority 2001, dated 2006).

Target: T1, human oxytocin receptor (Homo sapiens, UniProt P30559)
T1 construct: host or cells: CHO cells, stably transfected (pcDNA3.1 vector); membranes
T1 sequence (P30559 1-389): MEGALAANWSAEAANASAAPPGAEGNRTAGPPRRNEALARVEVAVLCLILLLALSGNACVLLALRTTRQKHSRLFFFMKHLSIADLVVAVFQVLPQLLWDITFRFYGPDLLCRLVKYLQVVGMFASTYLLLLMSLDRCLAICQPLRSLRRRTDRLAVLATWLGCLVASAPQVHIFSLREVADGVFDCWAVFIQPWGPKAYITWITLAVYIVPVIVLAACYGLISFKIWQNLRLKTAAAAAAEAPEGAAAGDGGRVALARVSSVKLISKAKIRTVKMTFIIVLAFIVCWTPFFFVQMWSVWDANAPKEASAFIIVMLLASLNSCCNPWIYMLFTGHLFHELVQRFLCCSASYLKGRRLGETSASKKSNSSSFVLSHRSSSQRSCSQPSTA
Test: Oxytocin binding in CHO cell membranes expressing human oxytocin receptors ([3H]oxytocin)
Conditions: 100 nM, values without parentheses
Source text: Oxytocin Binding in Chinese Hamster Ovary Cell Membranes Expressing Human Oxytocin Receptors
Chinese Hamster Ovary (CHO) cells stably transfected with the human oxytocin (cf. Tanizawa et al., U.S. Pat. No. 5,466,584 (1995) to Rohto Pharmaceutical Co. Ltd., Osaka, Japan) were obtained from M. Thibonnier, Case Western Reserve University School of Medicine, Cleveland, Ohio. A. Passaging and Amplification of Cells: CHO cells transfected with the human oxytocin receptors obtained from M. Thibonnier (pcDNA3.1 vector) are allowed to grow to confluency (approx. >90%) in T-150 flasks under sterile conditions, in a cell culture medium of F-12 Nutrient Mixture (HAM) with L-glutamine (Gibco Cat. #11765-054) containing 15 mM HEPES (Gibco Cat. #15630-080), 1% antibiotic/antimycotic (add 5 mL 100×, Gibco Cat. #15240-062 per 500 mL F-12), 400 μg/mL of Geneticin (add 4 mL of 50 mg/mL per 500 mL F-12) and 10% Fetal Bovine Serum (Qualified, heat inactivated, Gibco Cat. #16140-063). The medium is removed by aspiration and the cells are washed with 10 mL of Hank's Balanced Salt solution (Gibco Cat. #14175-095). The salt solution is removed by aspiration and the cells trypsinized with 5 mL of trypsin-EDTA (0.05% trypsin, 0.53 mM EDTA-4Na, Gibco Cat. #25300-070) for 1 min. The trypsin is removed by aspiration and the cells dislodged by tapping. Cell Culture medium (e.g. 30 mL for 1:30 split) is immediately added and mixed well to inactivate trypsin. 1 mL of detached cells is added to new culture flasks containing fresh Cell Culture medium (e.g. into 25 mL per T-150 flask), and mixed gently. The cells are incubated at 37° C. in 5% CO2. The medium is changed at 3 to 4 days interval (or as appropriate). The cells grow to confluency (approx. >75%–95%) within 7–8 days. All steps are done under sterile conditions. B. Membrane Preparation: The cells are washed twice gently with Hank's Balanced Salt solution (e.g., use 10 mL per T-150 flask). The excess is removed and the cells bathed for 15–30 min. in an enzyme-free Cell Dissociation Buffer (e.g., use 8 mL Hank's Based, Gibco Cat. #13150-016 per T-150 flask) until cells are loosened. The contents are transferred to centrifuge tubes (50 mL size) kept in ice bath. All subsequent steps are done at 4° C. The tubes are centrifuged at 300×g for 15 min (1380 rpm on SORVAL, Model RT6000D, using rotor for 50 mL tubes). The supernatant is discarded and the cells suspended in homogenizing buffer (10 mM Tris-HCl containing 0.25 M sucrose and 1 mM EDTA, pH 7.4) ensuring that the volume of the buffer is about ten times the volume of the cell pellet. The cells are pooled into a centrifuge tube (50 mL) and homogenized with Polytron at setting 6 for 10 sec. The homogenate is transferred into a Potter-Elvjehm homogenizer and homogenized with 3 strokes. The homogenate is centrifuged at 1500×g for 10 min at 4° C. (3100 rpm using SORVAL, model RT6000D, using rotor for 50 mL tubes). The pellet. is discarded. The supernatant is centrifuged at 100,000×g for 60 min. at 4° C. (Beckman L8-80M ultracentrifuge; spin at 37,500 rpm with rotor type 70 Ti for 50 mL tubes; 38,000 rpm with type 80Ti for 15 mL tubes; or 35,800 rpm with rotor type 45Ti). The supernantant is discarded and the pellet suspended in 3 to 4 mL of Tris buffer (50 mM TRIS-HCl, pH 7.4). The protein content is estimated by the Bradford or Lowry method. The volume of the membrane suspension is adjusted with the membrane buffer (50 mM Tris-HCl containing 0.1% BSA and 0.1 mM PMSF) to give 3.0 mg/mL (or as appropriate) of protein. The membranes are aliquoted and stored at −70° C. C. Radioligand Binding Assay: In wells of a 96-well format microliter plate, is added 90, 110 or 130 μL (to make up a final volume of 200 μL) of assay buffer containing 50 mM of Tris-HCl (pH 7.4), […], 1 mg % aprotinin, 1 mg % leupeptin, 2 mg % 1,10-phenanthroline, 10 mg % trypsin inhibitor, and 0.1 mM PMSF. The inhibitors are added on the day of the experiment. […]

Row | OT % inhibition @ 100 nM | SMILES
1 | 38% | O=C(c1ccc(C2=CCC3CCC2C3)cc1)N1Cc2cccn2Cc2ccccc21 (stereo not shown) [Example 21]
2 | 27% | CC(C)(C)C1CCCC=C1c1ccc(C(=O)N2Cc3cccn3Cc3ccccc32)cc1 (stereo not shown) [Example 20, (10,11-5H-Dihydro-pyrrolo[2,1-c][1,4]benzodiazepin-10-yl)-[4-(6-tert-butyl-cyclohex-1-en-1-yl)-phenyl]-methanone]

Same assay, conditions: 100 nM, values without parentheses, read-out: OT % inhibition @ 100 nM

Row | SMILES | inhibition at 0.1 µM
3 | CC1=C(c2ccc(C(=O)N3Cc4cccn4Cc4ccccc43)cc2)CCCC1=O [Example 26, 3-[4-(10,11-Dihydro-5H-pyrrolo[2,1-c][1,4]benzodiazepine-10-carbonyl)-phenyl]-2-methyl-cyclohex-2-en-1-one] | 80%
4 | Cc1cc(C(=O)N2Cc3cccn3Cc3ccccc32)ccc1C1=CCC2CC1C2(C)C (stereo not shown) [Example 36, (10,11-Dihydro-5H-pyrrolo[2,1-c][1,4]benzodiazepin-10-yl)-[4-(6,6-dimethyl-bicyclo[3.1.1]hept-2-en-2-yl)-3-methyl-phenyl]-methanone] | 14%
5 | Cc1cc(C(=O)N2Cc3cccn3Cc3ccccc32)ccc1C1=CCC2CCC1C2 (stereo not shown) [Example 35, (10,11-Dihydro-5H-pyrrolo[2,1-c][1,4]benzodiazepin-10-yl)-(4-bicyclo[3.2.1]oct-2-en-2-yl-3-methyl-phenyl)-methanone] | 48%
6 | CC1(C)C2CC=C(c3ccc(C(=O)N4Cc5cccn5Cc5ccccc54)cc3)C1C2 (stereo not shown) [Example 22, (10,11-Dihydro-5H-pyrrolo[2,1-c][1,4]benzodiazepin-10-yl)-[4-(6,6-dimethyl-bicyclo[3.1.1]hept-2-en-2-yl)-phenyl]-methanone] | 32%
7 | O=C(c1ccc(C2=CCCc3ccccc32)cc1)N1Cc2cccn2Cc2ccccc21 [Example 18, (10,11-Dihydro-5H-pyrrolo[2,1-c][1,4]benzodiazepin-10-yl)-[4-(3,4-dihydro-naphthalen-1-yl)-phenyl]-methanone] | 80%
8 | O=C(c1ccc(C2=CC(O)CCC2)cc1)N1Cc2cccn2Cc2ccccc21 (stereo not shown) [Example 25, (10,11-Dihydro-5H-pyrrolo[2,1-c][1,4]benzodiazepin-10-yl)-[4-(3-hydroxy-cyclohex-1-en-1-yl)-phenyl]-methanone] | 39%
9 | O=C(c1ccc(C2=CCCCC2)cc1Cl)N1Cc2cccn2Cc2ccccc21 [Example 10, (10,11-dihydro-5H-pyrrolo[2,1-c][1,4]benzodiazepin-10-yl)-[2-chloro-4-(cyclohex-1-en1-yl)-phenyl]-methanone] | 95%
10 | COc1cccc(C2=C(c3ccc(C(=O)N4Cc5cccn5Cc5ccccc54)cc3C)CCCC2)c1 [Example 38, (10,11-Dihydro-5H-pyrrolo[2,1-c][1,4]benzodiazepin-10-yl)-{4-[2-(3-methoxy-phenyl)-cyclohex-1-en-1-yl]-3-methyl-phenyl}-methanone] | 16%
11 | COc1cc(C2=CCCc3ccccc32)c(Cl)cc1C(=O)N1Cc2cccn2Cc2ccccc21 [Example 8, 10-[5-Chloro-4-(3,4-dihydro-naphthalen-1-yl)-2-methoxybenzoyl]-10,11-dihydro-5H-pyrrolo[2,1-c][1,4]benzodiazepine] | 93%
12 | CC1(C)CCCC=C1c1ccc(C(=O)N2Cc3cccn3Cc3ccccc32)cc1 [Example 17, (10,11-Dihydro-5H-pyrrolo[2,1-c][1,4]benzodiazepin-10-yl)-[4-(6,6-dimethyl-cyclohex-1-en-1-yl)-phenyl]-methanone] | 76%
13 | COc1cc(C2=C(C)C(=O)CCC2)c(Cl)cc1C(=O)N1Cc2cccn2Cc2ccccc21 [Example 9, 3-[2-Chloro-5-methoxy-4-(5H-pyrrolo[2,1-c][1,4]benzodiazepin-10(11H)-yl-carbonyl)phenyl]-2-methyl-cyclohex-2-en-1-one] | 90%

More lines, now with the values ahead:

Row | inhibition at 0.1 µM | SMILES
14 | 96% | Cc1cc(C(=O)N2Cc3cccn3Cc3ccccc32)ccc1C1=CCCCC1 [Example 2, (10,11-Dihydro-5H-pyrrolo[2,1-c][1,4]benzodiazepin-10-yl)-(4-cyclohex-1-en-1-yl-3-methyl-phenyl)-methanone]
15 | 90% | CC1=C(c2ccc(C(=O)N3Cc4cccn4Cc4ccccc43)cc2C)CCC[C@H]1O (single isomer, unassigned) [Example 41]
16 | 96% | CO[C@@H]1CCCC(c2ccc(C(=O)N3Cc4cccn4Cc4ccccc43)cc2C)=C1C [Example 44, 10-{4-[(3R)-3-Methoxy-2-methylcyclohex-1-en-1-yl]-3-methylbenzoyl}-10,11-dihydro-5H-pyrrolo[2,1-c][1,4]benzodiazepine]
17 | 63% | Cc1cc(C(=O)N2Cc3cccn3Cc3ccccc32)ccc1C1=CC(O)CCC1 (stereo not shown) [Example 40, (10,11-Dihydro-5H-pyrrolo[2,1-c][1,4]benzodiazepin-10-yl)-[4-(3-hydroxy-cyclohex-1-en-1-yl)-3-methyl-phenyl]-methanone]
18 | 13% | CC1=C(c2ccc(C(=O)N3Cc4cccn4Cc4ccccc43)cc2C)CCCC1O (racemic) [Example 5, (10,11-Dihydro-5H-pyrrolo[2,1-c][1,4]benzodiazepin-10-yl)-[4-(3-hydroxy-2-methyl-cyclohex-1-en-1-yl)-3-methyl-phenyl]-methanone]
19 | 76% | Cc1cc(C(=O)N2Cc3cccn3Cc3ccccc32)ccc1C1=CC(=O)CCC1 [Example 39, 3-[4-(10,11-Dihydro-5H-pyrrolo[2,1-c][1,4]benzodiazepine-10-carbonyl)-2-methyl-phenyl]-cyclohex-2-en-1-one]
20 | 95% | CC1=C(c2ccc(C(=O)N3Cc4cccn4Cc4ccccc43)cc2C)CCC[C@H]1O [Example 6, (10,11-Dihydro-5H-pyrrolo[2,1-c][1,4]benzodiazepin-10-yl)-[4-((3R)-3-hydroxy-2-methyl-cyclohex-1-en-1-yl)-3-methyl-phenyl]-methanone]

Same assay, conditions: values in parentheses, read-out: OT (IC50)

Row | IC50 | SMILES
21 | 48.9 nM | O=C(c1ccc(C2=CCCCC2)cc1)N1Cc2cccn2Cc2ccccc21 [Example 15, (10,11-Dihydro-5H-pyrrolo[2,1-c][1,4]benzodiazepin-10-yl)-(4-cyclohex-1-en-1-yl-phenyl)-methanone]
22 | 9.06 nM | CC1=C(c2ccc(C(=O)N3Cc4cccn4Cc4ccccc43)cc2)CCCC1 [Example 7, (10,11-Dihydro-5H-pyrrolo[2,1-c][1,4]benzodiazepin-10-yl)-[4-(2-methyl-cyclohex-1-en-1-yl)-phenyl]-methanone]
